Test results as given in patent US10022365B2 (Jiangsu Hengrui Medicine Co., Ltd., priority 2009, dated 2018).
Structures can show the parent of a compound that is named as a salt.

Tested on: Ls-174t human colon cancer
Test: Antitumor therapeutic efficacy test in vivo
Set-up: species or system BALB/cA-nude mice
Description: [Antitumor Therapeutic Efficacy Test In Vivo]
Preparation methods: The drug was diluted with saline solution to required concentration.
Experimental animals: BALB/cA-nude mice, 6-7 weeks, ♀, purchased from Shanghai Slac Laboratory Animal Co., LTD. […] Environment: SPF level.
After tumors grew to the 150-300 mm^3, mice were randomly divided into teams (d0). The volume of tumors and the weight of the mice were measured and recorded for 2-3 times per week. The tumor volume (V) was calculated by the follow equation: V=½×a×b^2 wherein a, b represent length and width respectively.

CCc1c2c(nc3ccc(OC(=O)N4CCC(N5CCCCC5)CC4)cc13)-c1cc3c(c(=O)n1C2)COC(=O)[C@]3(O)CC [CPT-11, Irinotecan hydrochloride]
growth of Ls-174t human colon cancer in nude mice: inhibited the growth of Ls-174t human colon cancer in nude mice significantly
% T/C D12 (10 mg/kg, IV, D0, 3): 45%
Tumor inhibition rate (%) D12 (10 mg/kg, IV, D0, 3): 55%
Partial regression (10 mg/kg, IV, D0, 3, number of animals): 0
